Measurements taken from patent publication US20230058623A1, “NOVEL HETEROARYL-TRIAZOLE COMPOUNDS AS PESTICIDES” (Bayer Aktiengesellschaft, priority 2019, published 2023).
Read-outs that look alike come from different tables or passages of the source.

What was measured:
Assay type in all cases: in vivo
[1] = system: green peach aphid (Myzus persicae); experiment: Myzus persicae oral test; conditions: 120 h, read-out: activity (mortality)
In short: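 Five-day oral feeding assay measuring percent mortality of a mixed aphid population that draws compound-containing sugared IPL41 medium through sealing parafilm; the test preparation derives from 1 part compound per 100 parts acetone, diluted with water.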

[2] = system: adult engorged female ticks (Rhipicephalus microplus); experiment: Rhipicephalus (Boophilus) microplus injection test; conditions: 168 h, read-out: activity (efficacy: infertile eggs)
In short: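 Compound in DMSO (10 mg per 0.5 mL, then diluted with DMSO to test concentration); 1 μL injected into the abdomen of each of five engorged females, then held in a climate chamber. Fertile egg deposition checked at 7 days; efficacy 100% = all eggs infertile, 0% = all fertile.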

[3] = system: green peach aphid (Myzus persicae); experiment: Myzus persicae spray test; conditions: foliar, 120 h, read-out: activity (mortality)
In short: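 Percent kill was recorded 5 days after spraying. Test solutions, prepared with solvent and diluted in 1000 ppm emulsifier water, were applied to Brassica pekinensis leaf disks carrying mixed-instar green peach aphids.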

[4] = system: adult unfed cat fleas (Ctenocephalides felis); experiment: Ctenocephalides felis oral test; conditions: 48 h, read-out: activity (mortality)
Protocol: Ctenocephalides felis—Oral Test
Solvent: dimethyl sulfoxide
To produce a suitable preparation of active compound, 10 mg of active compound are dissolved in 0.5 mL solvent, and the concentrate is diluted with citrated cattle blood to the desired concentration.
Approximately 20 adult unfed cat fleas (Ctenocephalides felis) are placed in a flea chamber whose top and bottom is covered with gauze. A chamber whose bottom is sealed with parafilm, is filled with the blood-compound solution and placed on top of the flea chamber, so that the fleas can suck the blood. The blood chamber is heated to 37° C. whereas the flea chamber is kept at room temperature.
After 2 days mortality in % is determined. 100% means all the fleas have been killed; 0% means none of the fleas have been killed.

[5] = system: Rhipicephalus (Boophilus) microplus larvae (strain Parkhurst, resistant against synthetic pyrethroids); experiment: Rhipicephalus (Boophilus) microplus in-vitro contact test, larval cattle tick; conditions: read-out: activity (efficacy: larvae dead or moribund)
In short: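 Pyrethroid-resistant Parkhurst larvae, 20–50 per tube, were kept 48 h at 27 °C and 85% relative humidity in glass tubes whose inner walls carried a dried acetone film of compound (900 ppm giving 5 μg/cm^2). Dead or moribund larvae, judged by loss of negative geotactic behavior, set percent efficacy.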

[6] = system: adult brown dog ticks (Rhipicephalus sanguineus); experiment: Rhipicephalus sanguineus in-vitro contact test, adult brown dog ticks; conditions: application rate 5 μg/cm^2 (=500 g/ha), after 48 hours, read-out: activity (efficacy: ticks dead or moribund)
In short: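 Efficacy is % of adult ticks dead or moribund 48 h after confinement at room temperature in tubes wall-coated from acetone (5 μg/cm² at 900 ppm). Scoring by heat challenge at 45-50 °C up to 5 min; immotile or uncoordinated ticks failing to climb count as affected.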

[7] = system: adult cat fleas (Ctenocephalides felis); experiment: Ctenocephalides felis in-vitro contact test, adult cat flea; conditions: application rate 5 μg/cm^2 (=500 g/ha), after 48 hours, read-out: activity (efficacy: fleas dead or moribund)
In short: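 After 48 h of room-temperature exposure in tubes whose walls carried dried compound residue (5 μg/cm^2, from 900 ppm acetone solution), adult cat fleas (5-10 per tube) were heat-challenged at 45-50° C up to 5 min. Fleas unable to climb away were counted dead or moribund, expressed as % efficacy.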

[8] = system: larvae of the banded cucumber beetle (Diabrotica balteata); experiment: Diabrotica balteata spray test; conditions: 168 h, application rate 100 g/ha (=32 μg/well), after 7 days, wheat seeds, read-out: activity (efficacy: seedlings grown)
In short: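 Efficacy (%) read 7 days after infesting treated seedlings with 10-20 banded cucumber beetle larvae, 100% meaning growth as in uninfected untreated control and 0% no growth. Test solutions in water containing 1000 ppm emulsifier were sprayed onto wheat seeds germinated for 1 day on agar.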

[9] = system: larvae of the southern green stink bug (Nezara viridula); experiment: Nezara viridula spray test; conditions: 96 h
In short: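 Barley plants sprayed with the active compound in emulsifier-containing water, then infested with stink bug larvae. Mortality scored in % after 4 days, with 100% meaning all insects killed.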

[10] = system: fall armyworm larvae (Spodoptera frugiperda); experiment: Spodoptera frugiperda spray test; conditions: 168 h, application rate 100 g/ha, after 7 days, maize leaf sections
In short: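 Percent larval kill read at day 7 on Zea mays leaf pieces that were spray-treated and, after drying, infested. Spray preparations made by dilution with emulsifier-containing water (1000 ppm).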

[11] = system: adult flies Musca domestica strain WHO-N; experiment: Musca domestica test (MUSCDO surface treatment & contact assay); conditions: 24 hours after contact, read-out: efficacy (mortality)
Protocol: Musca domestica Test (MUSCDO Surface Treatment & Contact Assay)
Solvent: Aceton+2000 ppm rapeseed oil methyl ester (RME)
In order to produce a sufficient, active ingredient containing solution it is necessary to solve the test compound in the solvent-mix (acetone at 2 mg/ml/RME 2000 ppm). This solution is pipetted onto a glazed tile and after evaporation of the acetone, adult flies of the species Musca domestica strain WHO-N are placed onto the dried surface. The exposure time is 30 minutes.
Mortality in percent (%) is determined 24 hours after contact of the insects to the treated surface. 100% mortality means that all tested insects are dead, whereas 0% means that no insect died.

[12] = system: brown planthopper (Nilaparvata lugens); experiment: Nilaparvata lugens spray test; conditions: 96 h, application rate 500 g/ha, after 4 days, rice plants
Protocol: Nilaparvata lugens—Spray Test
To produce a suitable preparation of active compound, 1 part by weight of active compound is mixed with the stated amount of solvents and is diluted with water, containing an emulsifier concentration of 1000 ppm, to the desired concentration. Further test concentrations are prepared by dilution with emulsifier containing water.
Rice plants (Oryza sativa) are sprayed with a preparation of the active ingredient of the desired concentration and the plants are infested with the brown planthopper (Nilaparvata lugens).
After 4 days mortality in % is determined. 100% means all planthoppers have been killed and 0% means none of the planthoppers have been killed.

[13] = application rate 4 μg/tick, egg deposition after 7 days
[14] = application rate 1 μg/cm^2 (=100 g/ha), after 48 hours
[15] = application rate 5 μg/cm^2 (=500 g/ha), after 48 hours
[16] = application rate 100 g/ha, after 5 days, Chinese cabbage leaf disks

| SMILES | mortality at 4 ppm [1] [%] | pest or weed control at 0.004 mg [2, 13] [%] | mortality at 100 g/ha ([3]; in Brassica rapa) [%] | mortality at 100 ppm [4] [%] | pest or weed control at 1 µg/cm2, 100 g/ha ([5]; 48 h) [%] | pest or weed control at 5 µg/cm2, 500 g/ha ([5]; 48 h) [%] | pest or weed control at 5 µg/cm2, 500 g/ha [6] [%] | pest or weed control at 5 µg/cm2 [7] [%] | pest or weed control at 32 µg/disc, 100 g/ha [8] [%] | pest or weed control at 0.004 mg [2] [%] | mortality at 500 g/ha ([9]; in Hordeum vulgare, read-out: activity (mortality)) [%] | mortality at 100 g/ha ([9]; application rate 100 g/ha, after 4 days, barley plants) [%] | mortality at 100 g/ha [10] [%] | pest or weed control at 1 µg/cm2, 100 g/ha [5, 14] [%] | pest or weed control at 5 µg/cm2, 500 g/ha [5, 15] [%] | mortality at 4 mg/m2 ([11]; surface concentration 4 mg/m^2, exposure 30 minutes) [%] | mortality at 20 mg/m2 ([11]; surface concentration 20 mg/m^2, exposure 30 minutes) [%] | mortality at 100 g/ha [3, 16] [%] | mortality at 500 g/ha [12] [%] |
| --- | --- | --- | --- | --- | --- | --- | --- | --- | --- | --- | --- | --- | --- | --- | --- | --- | --- | --- | --- |
| C[C@H](NC(=O)c1cc(Cl)cc(C(F)(F)F)c1)c1ncnn1-c1ccc(C(=O)N2CC3CC(C2)O3)cn1 [Example I-41] | 100 | 100 | 90 | 100 | 100 | 100 | 100 | 80 | 100 |  |  |  |  |  |  |  |  |  |  |
| Cc1nc([C@H](C)NC(=O)c2cc(C(F)(F)F)cc(C(F)(F)F)c2)n(-c2ccc(C(=O)N3CCC[Si](C)(C)C3)cn2)n1 [Example I-93] |  |  |  | 100 | 90 | 90 |  |  |  | 100 | 90 |  |  |  |  |  |  |  |  |
| Cc1nc([C@H](C)NC(=O)c2cc(C(F)(F)F)cc(C(F)(F)F)c2)n(-c2ccc(C(=O)N3C[C@H](C)O[C@@H](C)C3)cn2)n1 [Example I-95] |  | 100 |  | 100 |  |  | 100 | 100 | 100 |  |  | 100 | 100 | 100 | 100 |  |  |  |  |
| Cc1nc([C@H](C)NC(=O)c2cc(OC(F)(F)F)cc(C3CC3)c2)n(-c2ccc(C(=O)N3C[C@@H](C)O[C@@H](C)C3)cn2)n1 [Example I-115] | 100 | 100 |  | 100 |  |  | 100 | 100 | 80 |  |  |  |  | 90 | 90 | 80 to 100 | 80 to 100 | 90 |  |
| C[C@@H]1CN(C(=O)c2ccc(-n3ncnc3[C@H](C)NC(=O)c3cc(OC(F)(F)F)cc(C4CC4)c3)nc2)C[C@@H](C)O1 [Example I-116] | 100 | 100 |  | 100 |  |  | 80 | 100 | 80 |  |  |  |  | 100 | 100 |  |  | 90 |  |
| C[C@@H]1CN(C(=O)c2cnc(-n3ncnc3[C@H](C)NC(=O)c3cc(OC(F)(F)F)cc(S(C)(=O)=O)c3)nc2)C[C@H](C)O1 [Example I-145] |  |  |  |  |  |  |  |  | 100 |  |  |  |  |  |  |  |  |  | 100 |
